A word on the IC50: it is the point on the concentration scale where inhibition reaches its midpoint.

This note sets out measurements from ChEMBL document CHEMBL4138112, “Synthesis of novel indole derivatives as promising DNA-binding agents and evaluation of antitumor and antitopoisomerase I activities” (Eur J Med Chem, 2017).

Each structure is given as a SMILES string. Calls of active or inactive are those of the source. The rule behind the calls is not given here.

One experiment has as its system MCF7. Put plainly: Cytotoxicity against human MCF7 cells assessed as reduction in cell viability after 72 hrs by MTT assay. It is filed as functional, cell-based. The following applies: MCF7, 72 h.
The subject of another experiment is HL-60. Description: Cytotoxicity against human HL60 cells assessed as reduction in cell viability after 72 hrs by MTT assay. It is filed as functional, cell-based. The following applies: HL-60, 72 h. For orientation: Tetrazolium assays rely on reduction of a dye to a coloured formazan, in cell work by metabolically active cells.
The subject of the next experiment is T47D. Description: Cytotoxicity against human T47D cells assessed as reduction in cell viability after 72 hrs by MTT assay. It is filed as functional, cell-based.
The next experiment concerns K562. Description: Cytotoxicity against human K562 cells assessed as reduction in cell viability after 72 hrs by MTT assay. As to conditions: K562, 72 h. It is filed as functional, cell-based.
For experiment [1], the system named is Calf thymus DNA. Put plainly: Binding affinity to calf thymus DNA assessed as change in absorption maximum at 10 to 80 uM by UV-Visible absorption spectroscopy (reference value: 425 to 500 nanometer). It is filed as nucleic-acid assay. As to conditions: Bos taurus.
Experiment [2] relates to Calf thymus DNA. Put plainly: Binding affinity to calf thymus DNA assessed as hypochromicity at 10 to 80 uM by UV-Visible absorption spectroscopy relative to control. The following applies: Bos taurus. It is filed as nucleic-acid assay.
For experiment [3], the system named is Calf thymus DNA. Put plainly: Inhibition of ethidium bromide binding to calf thymus DNA by fluorescence spectra analysis. As to conditions: Bos taurus. It is filed as nucleic-acid assay.
Experiment [4] relates to Calf thymus DNA. Put plainly: Binding affinity to calf thymus DNA by UV-Visible absorption spectroscopy. As to conditions: Bos taurus. It is filed as nucleic-acid assay.
Experiment [5] has as its system Calf thymus DNA. Put plainly: Binding affinity to calf thymus DNA assessed as hyperchromicity at 10 to 80 uM by UV-Visible absorption spectroscopy relative to control. It is filed as nucleic-acid assay. The following applies: Bos taurus.
Experiment [6] has as its system Calf thymus DNA. Put plainly: Inhibition of ethidium bromide binding to calf thymus DNA at 20 to 200 uM by fluorescence spectra analysis. It is filed as nucleic-acid assay. As to conditions: Bos taurus.
In experiment [7] the target is T1, DNA topoisomerase 1 (Homo sapiens) (UniProt P11387).
T1 sequence (whole entry): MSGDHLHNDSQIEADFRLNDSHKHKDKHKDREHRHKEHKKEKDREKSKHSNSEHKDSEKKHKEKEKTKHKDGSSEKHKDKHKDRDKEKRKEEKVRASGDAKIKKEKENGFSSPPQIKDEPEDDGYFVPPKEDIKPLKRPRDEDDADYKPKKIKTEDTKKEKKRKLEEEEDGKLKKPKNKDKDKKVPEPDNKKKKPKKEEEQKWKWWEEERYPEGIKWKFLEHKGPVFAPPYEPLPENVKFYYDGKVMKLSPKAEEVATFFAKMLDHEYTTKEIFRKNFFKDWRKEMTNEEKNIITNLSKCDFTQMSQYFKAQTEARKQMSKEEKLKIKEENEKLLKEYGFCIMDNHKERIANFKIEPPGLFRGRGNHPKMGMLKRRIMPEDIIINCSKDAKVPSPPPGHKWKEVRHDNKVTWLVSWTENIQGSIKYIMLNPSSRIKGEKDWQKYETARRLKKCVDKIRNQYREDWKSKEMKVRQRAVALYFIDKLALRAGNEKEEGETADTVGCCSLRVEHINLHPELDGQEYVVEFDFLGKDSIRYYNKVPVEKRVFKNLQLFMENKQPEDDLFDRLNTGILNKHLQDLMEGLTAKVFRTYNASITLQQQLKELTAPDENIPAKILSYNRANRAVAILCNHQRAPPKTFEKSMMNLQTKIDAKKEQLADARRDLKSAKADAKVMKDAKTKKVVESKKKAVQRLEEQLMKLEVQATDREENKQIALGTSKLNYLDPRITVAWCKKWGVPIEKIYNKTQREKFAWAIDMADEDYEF
Put plainly: Inhibition of human recombinant topoisomerase 1-mediated relaxation of supercoiled pUC19 DNA at 10 to 50 uM after 45 mins by ethidium bromide staining based agarose gel electrophoresis method.

For `COc1cccc2c1C(=O)c1c(O)c3c(c(O)c1C2=O)C[C@@](O)(C(=O)CO)C[C@@H]3O[C@H]1C[C@H](N)[C@H](O)[C@H](C)O1` [DOXORUBICIN], the IC50 came to 2.71 µM in the experiment with MCF7, 0.01 µM in the experiment on HL-60, 4.61 µM in the experiment on T47D and 6.25 µM with K562.
With `O=C1NC(=O)/C(=C/c2c[nH]c3ccc(Br)cc23)S1`, the concentration for half-maximal inhibition (IC50) in the experiment with MCF7, with HL-60, with T47D and with K562 was above 50 µM in each case. Moreover, the Activity in the experiment on Calf thymus DNA [1] is 457 nm; in the experiment with Calf thymus DNA [2] it was 6%. This molecule registered a KSV in the experiment on Calf thymus DNA [3] of 3.86 ×10³ /M. Further, the Kb in the experiment with Calf thymus DNA [4] was 5.24 ×10⁴ /M.
As to `O=C1NC(=O)/C(=C/c2c[nH]c3ccccc23)S1`, the IC50 is above 50 µM with MCF7, 12.8 µM in the experiment with HL-60, 1.93 µM with T47D and above 50 µM with K562. Moreover, the Activity in the experiment with Calf thymus DNA [1] was 378 nm; in the experiment with Calf thymus DNA [2], 24%. Besides, in the experiment on Calf thymus DNA [3], the KSV amounted to 1.59 ×10³ /M. The molecule also showed a Kb in the experiment on Calf thymus DNA [4] of 7.26 ×10⁴ /M.
With `O=C1NC(=S)S/C1=C\c1c[nH]c2ccc(Br)cc12`, the IC50 was 3.65 µM in the experiment with MCF7, above 50 µM with HL-60, 11.7 µM with T47D and above 50 µM with K562. Moreover, the figures for the Activity in the experiment with Calf thymus DNA [1] and in the experiment on Calf thymus DNA [5] were 462 to 465 nm and 8%, respectively. Besides, the KSV with Calf thymus DNA [3] worked out at 6.31 ×10³ /M. The same molecule registered a Kb in the experiment with Calf thymus DNA [4] of 1.56 ×10⁴ /M.
As to `NN1C(=O)/C(=C/c2c[nH]c3ccc(Br)cc23)SC1=S`, the IC50 is above 50 µM in the experiment on MCF7, 6.74 µM in the experiment on HL-60, above 50 µM in the experiment on T47D and above 50 µM with K562. The Activity in the experiment on Calf thymus DNA [1] is 411 to 413 nm; in the experiment with Calf thymus DNA [5], 23%. In the experiment on Calf thymus DNA [3], this molecule showed a KSV of 2.96 ×10³ /M. Further, the Kb in the experiment with Calf thymus DNA [4] was 1.84 ×10⁴ /M.
For the molecule `O=C1NC(=S)S/C1=C\c1c[nH]c2ccccc12`, the IC50 in the experiment on MCF7, in the experiment with HL-60, with T47D and in the experiment with K562 was above 50 µM throughout. Also, the Activity is 436 to 462 nm in the experiment on Calf thymus DNA [1] and 75% in the experiment with Calf thymus DNA [5]. The KSV with Calf thymus DNA [3] amounted to 1.78 ×10³ /M. The same molecule had a Kb in the experiment on Calf thymus DNA [4] of 4.51 ×10⁴ /M.
With `NN1C(=O)/C(=C/c2c[nH]c3ccccc23)SC1=S`, in the experiment with Calf thymus DNA [6], the outcome was Active. The IC50 in the experiment on MCF7 was above 50 µM; in the experiment with HL-60, 3.61 µM; in the experiment with T47D it was above 50 µM; with K562, 22.5 µM. The inhibition result in [7] is “Active”. For the same molecule, the Activity in the experiment on Calf thymus DNA [1] is 504 to 507 nm; in the experiment with Calf thymus DNA [5], 6%. The molecule further returned a KSV with Calf thymus DNA [3] of 1.81 ×10⁴ /M. In addition, the Kb in the experiment on Calf thymus DNA [4] is 5.69 ×10⁴ /M.
For the molecule `O=C1NC(=S)N/C1=C\c1c[nH]c2ccccc12`, the IC50 with MCF7 is 12.4 µM; in the experiment with HL-60, above 50 µM; with T47D, above 50 µM; in the experiment with K562, above 50 µM. In addition, the Activity is 423 nm in the experiment on Calf thymus DNA [1] and 11% in the experiment with Calf thymus DNA [2]. In the experiment on Calf thymus DNA [3], this molecule had a KSV of 1.36 ×10³ /M. The Kb with Calf thymus DNA [4] was determined as 6.27 ×10⁴ /M.
